Experiments:
[1] = tested on: dihydrofolate reductase (DHFR); conditions: one representative experiment out of 5; 37° C., pH 7.0, 20 μM dihydrofolate, 100 μM NADPH
carcinoma W256 = experiment: Walker-256 rat tumor model; format: in vivo
Procedure: Compounds of formula I were also active in vivo against the carcinoma W256 (TGI=28%), most likely due to the higher solubility and thus passive transport into the tumor compared with other anti-folate agents. Median survival times for saline-treated control animals and animals receiving Compound 4 (1 mg/kg) intraperitoneally in the Walker-256 rat tumor model were 22.5 and >46.3 days, respectively.

L 1210 cells = experiment: Tumor inhibition in mice, subcutaneous L1210 cells; format: in vivo; conditions: DBA/2 mice, L1210 s.c.; 0.5 mg/kg; saline control 6.7 days
Procedure: The ability of compounds of formula I to inhibit tumor growth in mice was tested as follows. 5×10^6 L 1210 cells were injected subcutaneously in the axillary region of DBA/2 mice (groups of 8 mice/treatment). Following intraperitoneal administration of saline solution only or saline solution containing a compound of formula I the length and width of the control tumor (receiving only saline) was measured at the indicated time and compared to those of animals receiving test compound to calculate the percentage of inhibition. Intraperitoneal administration of a saline solution containing the test compound, daily for 6 days, led to 60% tumor-free long term survivors (tumor weight zero). Median survival times for saline-treated control animals and animals receiving Compound 4 (0.5 mg/kg) were 6.7 and 15.6 days, respectively. Oral administration of the compound required a higher dosage of the inhibitor and led to a less-marked, but still significant reduction of the tumor weight and 25% long-term survivors as compared with the saline-treated control group.

[2] = 0.25 mg/kg - 3 doses every 4 days
[3] = 0.5 mg/kg - 3 doses every 4 days

N-[4-[[2,4-diamino-6-pteridinyl)methyl]amino]benzoyl]pseudoglutamic acid [Compound 4]
Relative IC50 (IC50(Compound)/IC50(MTX)) [1]: 0.75
No. animals surviving at day 30 days post-transplant (carcinoma W256; 0.1 mg/kg - 5 doses every day): 10/10
Tumor volume (cm^3) ± SE (carcinoma W256; 0.1 mg/kg - 5 doses every day): 14.5 ± 3.8 cm^3
No. animals surviving at day 30 days post-transplant (carcinoma W256; [2]): 8/10
Tumor volume (cm^3) ± SE (carcinoma W256; [2]): 23 ± 3.5 cm^3
No. animals surviving at day 30 days post-transplant (carcinoma W256; [3]): 9/10
Tumor volume (cm^3) ± SE (carcinoma W256; [3]): 13.4 ± 3.07 cm^3
No. animals surviving at day 30 days post-transplant (carcinoma W256; 1 mg/kg - one dose): 8/10
Tumor volume (cm^3) ± SE (carcinoma W256; 1 mg/kg - one dose): 17.1 ± 3.3 cm^3
Median survival time (carcinoma W256; Walker-256 rat tumor model, 1 mg/kg intraperitoneally, saline control 22.5 days): > 46.3 days
Median survival time (L 1210 cells): 15.6 days
